Patent publication US8143241B2, “DNA damage repair inhibitors for treatment of cancer” (Kudos Pharmaceuticals Limited, priority 2003, dated 2012)

How the values were obtained:
HT29 cells = experiment: SRB cell growth assay, ATM/PARP inhibitor combination; assay type: cell-based; conditions: KU-0059436 plus KU-60019
Description: (§1) Cell growth was assessed using the sulforhodamine B (SRB) assay (Skehan, P. et al (1990) J. Natl. Cancer Inst. 82, 1107-1112) 2,000 cells were seeded into each well of a flat-bottomed 96-well microtiter plate in a volume of […] and incubated for 6 hours at 37° C. Cells were either replaced with media alone or with media containing PARP inhibitor or ATM inhibitor or both at a range of concentrations shown. Cells were then allowed to grow for a further 96 hours after which the media was removed and the cells fixed with […] of ice cold 10% (w/v) trichloroacetic acid. The plates were incubated at 4° C. for 20 minutes and then washed four times with water. Each well of cells was then stained with […] of 0.4% (w/v) SRB in 1% acetic acid for 20 minutes before washing four times with 1% acetic acid. Plates were then dried for 2 hours at room temperature. The dye from the stained cells was solubilized by the addition of […] of 10 mM Tris Base into each well. Plates were gently shaken and left at room temperature for 30 minutes before measuring the optical density at 564 nm on a Microquant microtiter plate reader.

PARP-2 = PARP-2 (Homo sapiens, UniProt Q9UGN5); experiment: Inhibition of poly(ADP-ribose) polymerase activity of PARP-2; assay type: biochemical
Chain of PARP-2 (Q9UGN5 whole entry): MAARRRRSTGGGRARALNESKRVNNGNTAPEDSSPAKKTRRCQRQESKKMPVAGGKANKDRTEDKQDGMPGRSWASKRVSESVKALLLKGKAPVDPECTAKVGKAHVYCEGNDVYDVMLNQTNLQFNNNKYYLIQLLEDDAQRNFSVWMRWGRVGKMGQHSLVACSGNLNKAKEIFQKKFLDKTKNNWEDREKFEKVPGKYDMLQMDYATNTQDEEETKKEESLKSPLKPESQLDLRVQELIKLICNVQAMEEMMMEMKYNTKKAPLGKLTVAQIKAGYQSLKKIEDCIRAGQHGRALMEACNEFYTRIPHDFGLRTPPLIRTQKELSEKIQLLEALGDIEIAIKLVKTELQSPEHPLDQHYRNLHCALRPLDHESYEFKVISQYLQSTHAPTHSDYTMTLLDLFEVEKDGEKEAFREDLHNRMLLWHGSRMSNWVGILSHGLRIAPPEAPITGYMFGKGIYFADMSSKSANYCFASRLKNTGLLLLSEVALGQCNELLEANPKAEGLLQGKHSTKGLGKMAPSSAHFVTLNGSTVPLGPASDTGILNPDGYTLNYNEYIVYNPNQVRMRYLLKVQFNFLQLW

Brca1 deficient ES cells = experiment: Clonogenic assay, continuous exposure, Brca1 deficient ES cells; assay type: cell-based, mouse
Description: (§2) For measurement of sensitivity to chemical inhibitors, cell cultures e.g. ES cells or mouse embryonic fibroblasts, in exponential growth were trypsinised and seeded at various densities in 6-well plates onto confluent monolayer of Mitomycin C (MMC) inactivated mouse embryonic fibroblasts and, where appropriate, treated with inhibitors after 18 h. For continuous exposure, cells were re-fed every 4 days with fresh medium and inhibitor. For timed exposures, inhibitor was added for the specified period then cells were washed and re-fed with fresh medium. After 10-14 days, cells were washed with PBS, fixed in methanol and stained with crystal violet. Colonies containing greater than approximately 50 cells were counted. Experiments were performed at least three times in triplicate.

[1] = test system: Fancd2−/−, Fanca−/−, Fancc−/− and Fanca−/−c−/− fibroblasts; experiment: Clonogenic survival, Fanconi anaemia mouse fibroblasts; assay type: cell-based; conditions: continuous exposure 12-14 days
Description: Mouse fibroblasts from wild-type, Fancd2^−/−, Fanca^−/−, Fancc^−/− and Fanca^−/−c^−/− animals were obtained from the Fanconi Anaemia Cell Repository, Oregon Health and Science University. These cells were maintained in DMEM, supplemented with FCS (10% v/v), glutamine and antibiotics. RAD54 and RAD52 Embryonic Stem (ES) cells were grown in DMEM, supplemented with FCS (15% v/v), glutamine, antibiotics, non-essential amino acids, 2-mercaptoethanol and Leukemia inhibitory Factor. HeLa cells (CCL-2) were obtained from ATCC (USA) and were maintained in DMEM, supplemented with FCS (10% v/v), glutamine and antibiotics.
as §2

[2] = test system: HeLa cells transfected with DSS1 and RPA siRNA plasmids; experiment: Cell viability, HeLa cells transfected with DSS1 and RPA siRNA plasmids; assay type: cell-based, human
Description: (§3) For cell viability assays, HeLa cells were co-transfected with pSUPER and pEFBsd in 96 well plates using FuGene (Roche, USA) according to the manufacturers instructions. Twenty-four hours after transfection, cells were plated into replica plates and this was followed by treatment with PARP inhibitors and blasticidin 48 hours post transfection. Media containing PARP inhibitors and blasticidin was replenished five days post-transfection and cell viability was measured at seven days using the 96 well plate CellTitre-Glo™ Luminescent Cell Viability Assay kit (Promega, USA, according to the manufacturers instructions).

Brca2 deficient ES cells = experiment: Clonogenic assay, continuous exposure, Brca2 deficient ES cells; assay type: cell-based, mouse
Description: as §2

Rad52 deficient ES cells = experiment: Clonogenic survival, Rad52 deficient ES cells; assay type: cell-based
Description: as §2

vault PARP = vault PARP (Homo sapiens, UniProt Q9UKK3); experiment: Selectivity: vault PARP inhibition; assay type: biochemical; conditions: at concentrations up to 1 μM
Chain of vault PARP (Q9UKK3 whole entry): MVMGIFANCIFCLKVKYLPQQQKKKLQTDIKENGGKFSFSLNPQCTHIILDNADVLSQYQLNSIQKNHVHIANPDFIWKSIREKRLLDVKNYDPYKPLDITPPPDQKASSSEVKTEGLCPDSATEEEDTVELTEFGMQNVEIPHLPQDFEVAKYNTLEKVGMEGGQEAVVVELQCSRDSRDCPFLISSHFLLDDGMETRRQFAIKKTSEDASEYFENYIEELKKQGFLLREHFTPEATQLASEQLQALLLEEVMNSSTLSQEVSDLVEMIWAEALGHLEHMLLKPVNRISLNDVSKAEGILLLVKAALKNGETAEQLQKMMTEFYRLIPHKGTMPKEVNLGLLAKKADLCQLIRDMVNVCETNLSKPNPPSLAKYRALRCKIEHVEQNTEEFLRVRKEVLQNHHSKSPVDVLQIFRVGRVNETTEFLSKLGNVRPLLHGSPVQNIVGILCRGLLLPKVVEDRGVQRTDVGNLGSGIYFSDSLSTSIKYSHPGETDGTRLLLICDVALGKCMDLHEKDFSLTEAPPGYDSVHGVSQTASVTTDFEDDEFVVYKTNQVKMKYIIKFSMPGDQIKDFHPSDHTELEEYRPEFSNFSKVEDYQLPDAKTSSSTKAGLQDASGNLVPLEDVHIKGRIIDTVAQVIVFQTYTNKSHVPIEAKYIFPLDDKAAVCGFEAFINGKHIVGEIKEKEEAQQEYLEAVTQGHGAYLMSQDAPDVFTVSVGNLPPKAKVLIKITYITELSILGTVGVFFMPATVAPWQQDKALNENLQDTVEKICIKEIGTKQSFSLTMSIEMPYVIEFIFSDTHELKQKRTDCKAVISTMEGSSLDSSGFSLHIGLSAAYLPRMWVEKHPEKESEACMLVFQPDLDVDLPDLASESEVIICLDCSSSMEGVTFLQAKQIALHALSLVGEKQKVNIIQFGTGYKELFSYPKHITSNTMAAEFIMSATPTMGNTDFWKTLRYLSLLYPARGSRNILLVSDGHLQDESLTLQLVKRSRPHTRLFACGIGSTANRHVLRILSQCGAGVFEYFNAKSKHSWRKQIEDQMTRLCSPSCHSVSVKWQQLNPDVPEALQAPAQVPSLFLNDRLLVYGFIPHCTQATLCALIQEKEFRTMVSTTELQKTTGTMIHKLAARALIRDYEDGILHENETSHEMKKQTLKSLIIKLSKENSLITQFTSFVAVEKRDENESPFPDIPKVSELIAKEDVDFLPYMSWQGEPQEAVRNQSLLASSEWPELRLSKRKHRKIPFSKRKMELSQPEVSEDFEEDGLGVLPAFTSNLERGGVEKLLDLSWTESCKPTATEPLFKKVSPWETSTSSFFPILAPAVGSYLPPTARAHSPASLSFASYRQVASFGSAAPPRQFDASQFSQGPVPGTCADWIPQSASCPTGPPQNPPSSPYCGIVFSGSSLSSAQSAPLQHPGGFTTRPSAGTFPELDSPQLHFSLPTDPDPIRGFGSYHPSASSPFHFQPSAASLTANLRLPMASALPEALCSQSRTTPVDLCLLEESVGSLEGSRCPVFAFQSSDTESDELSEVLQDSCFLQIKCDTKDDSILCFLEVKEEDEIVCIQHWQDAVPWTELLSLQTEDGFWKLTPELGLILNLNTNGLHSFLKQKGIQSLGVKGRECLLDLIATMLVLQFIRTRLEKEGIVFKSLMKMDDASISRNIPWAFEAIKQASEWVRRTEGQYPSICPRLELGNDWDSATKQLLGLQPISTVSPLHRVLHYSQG

[3] = test system: HeLa cells transfected with ATM, ATR, CHK1 or CHK2 silencing RNAi; experiment: Cell viability, HeLa cells transfected with ATM, ATR, CHK1 or CHK2 silencing RNAi; assay type: cell-based, human; conditions: five days
Description: as §3

tankyrase = conditions: at concentrations up to 1 μM
PARP-3 = PARP-3 (Homo sapiens, UniProt Q9Y6F1); experiment: Selectivity: PARP-3 inhibition; assay type: biochemical; conditions: at concentrations up to 1 μM
Chain of PARP-3 (Q9Y6F1 whole entry, species assumed): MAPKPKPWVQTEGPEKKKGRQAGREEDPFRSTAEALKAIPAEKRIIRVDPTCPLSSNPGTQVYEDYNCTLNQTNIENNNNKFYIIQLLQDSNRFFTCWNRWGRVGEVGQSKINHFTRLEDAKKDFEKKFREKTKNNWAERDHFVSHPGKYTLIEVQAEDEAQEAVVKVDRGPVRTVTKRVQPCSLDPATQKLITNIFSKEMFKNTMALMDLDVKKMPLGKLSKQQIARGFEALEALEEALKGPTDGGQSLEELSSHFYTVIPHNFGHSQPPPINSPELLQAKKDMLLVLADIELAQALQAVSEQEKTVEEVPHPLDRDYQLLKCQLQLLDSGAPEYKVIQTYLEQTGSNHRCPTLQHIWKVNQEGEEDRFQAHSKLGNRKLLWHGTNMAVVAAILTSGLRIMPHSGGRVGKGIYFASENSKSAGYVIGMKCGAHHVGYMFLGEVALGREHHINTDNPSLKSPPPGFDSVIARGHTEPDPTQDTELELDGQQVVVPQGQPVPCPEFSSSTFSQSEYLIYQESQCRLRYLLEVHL

[4] = test system: RAD51 siRNA transfected HeLa cells; experiment: Clonogenic survival, HeLa cells with RAD51 RNAi silencing; assay type: cell-based, human; conditions: continuous treatment
Text: Clonogenic survival curves of transfected HeLa cells under constant exposure to a range of concentrations of PARP inhibitor (KU0058684) for 12-14 days. […] SF50 for pSUPER-CFP-CONTROL transfected cells is >1×10^−5 M and is 1×10^−6 M for pSUPER-CFP-17/19/23 transfected cells.
HeLa cells were transfected using FuGene (Roche, USA) according to the manufacturers instructions. For clonogenic survival assays, cells were co-transfected in 6 well plates with pSUPER and a vector expressing blasticidin resistance (pEF-Bsd, Invitrogen, USA) at a ratio of 10:1 (pSUPER: pEF-Bsd). Twenty-four hours after transfection, cells were plated into replica plates and this was followed by treatment with PARP inhibitors and blasticidin 48 hours post transfection.

[5] = test system: HeLa cells with BRCA1, BRCA2 and RAD51 silencing; experiment: Cell viability, HeLa cells with BRCA1, BRCA2 or RAD51 silencing; assay type: cell-based, human; conditions: five days
Description: as §3

FT/pEBS7 ATM−/− cells = experiment: SRB cell growth assay, ATM deficient vs complemented cells; assay type: cell-based; conditions: FT/pEBS7 ATM−/− vs FT/pEBS7-Y25 ATM+/+
Description: as §1

NBS1−/− fibroblast cells = experiment: SRB cell growth assay, NBS1 deficient fibroblasts vs MRC5; assay type: cell-based
Description: as §1

HeLa cells = experiment: Cell viability, HeLa cells exposed to PARP inhibitor and caffeine; conditions: 1 mM Caffeine plus KU0058684
Description: Error bars represent standard errors of the mean.
Caffiene was used to determine whether loss of ATM and ATR dependent DNA signalling pathways would induce sensitivity to PARP inhibition.

C[C@@H]1CN(CC(=O)Nc2ccc3c(c2)Cc2cccc(-c4cc(=O)cc(N5CCOCC5)o4)c2S3)C[C@H](C)O1 [KU-60019, reference compound]
sensitivity to PARP inhibition with ATM inhibitor combination (HT29 cells): Sensitivity to PARP inhibition was observed to increase with increasing concentrations of ATMI

O=C(c1cc(Cc2n[nH]c(=O)c3ccccc23)ccc1F)N1CCCNCC1 [KU0058948]
inhibition of poly(ADP-ribose) polymerase activity of PARP-1 and PARP-2 (PARP-2): potent and specific inhibitors | sensitivity of Brca1 mutant cells relative to KU0058684 (Brca1 deficient ES cells): even greater than that of KU0058684 | sensitivity of Brca1 deficient cells compared to otherwise isogenic cells (Brca1 deficient ES cells; clonogenic assay): extremely sensitive | sensitivity of FA gene deficient fibroblasts compared to wild-type cells [1]: results in sensitivity | sensitivity of DSS1 and RPA siRNA transfected cells compared to control plasmid [2]: enhanced sensitivity | sensitivity of Brca2 mutant cells relative to KU0058684 (Brca2 deficient ES cells): even greater than that of KU0058684 | sensitivity of Brca2 deficient cells compared to otherwise isogenic cells (Brca2 deficient ES cells; clonogenic assay): extremely sensitive | sensitivity of Rad52 deficient ES cells compared to wild-type cells (Rad52 deficient ES cells): no more sensitive | inhibition of vault PARP (vault PARP): do not inhibit | sensitivity of ATM, ATR, CHK1, CHK2 siRNA transfected HeLa cells compared to control plasmid [3]: increased sensitivity | inhibition of tankyrase (tankyrase): do not inhibit | inhibition of PARP-3 (PARP-3): do not inhibit | clonogenic survival of RAD51 siRNA transfected cells compared to control transfected cells [4]: significant reduction in the clonogenic survival | sensitivity to PARP inhibition after BRCA1, BRCA2 and RAD51 silencing [5]: profound sensitivity

O=C(c1cc(Cc2n[nH]c(=O)c3ccccc23)ccc1F)N1CCN(C(=O)C2CC2)CC1 [KU0059436]
sensitivity of ATM deficient cells compared to wild-type cells (FT/pEBS7 ATM−/− cells): more sensitive | sensitivity to PARP inhibition with ATM inhibitor combination (HT29 cells): Sensitivity to PARP inhibition was observed to increase with increasing concentrations of ATMI | sensitivity of NBS1 deficient cells compared to wild-type cells (NBS1−/− fibroblast cells): more sensitive

Cn1c(=O)c2c(ncn2C)n(C)c1=O [Caffeine, reference compound]
sensitivity of HeLa cells to PARP inhibitor with caffeine (HeLa cells): increased sensitivity
